From US6288089A, “Use of kinase inhibitors for treating neurodegenerative diseases” (priority 1999, dated 2001)
Entries after “also recorded” stand apart in the source; their conditions may differ.

Columns and labels:
[1] = tested on: TH+ dopamine neurons of E15 rat mesencephalic primary cultures; format: cell-based; details: 20 h serum withdrawal
[2] = tested on: TH+ dopamine neurons of E15 rat ventral mesencephalic cultures; details: 10 μM; 18 h serum-free
Excerpt: To make this determination, select rat embryonic mesencephalic cultures were double stained for both the TH dopaminergic cell marker and for nuclear characteristics indicative of apoptosis. […] Following 18 hrs under these conditions, cultures were immunostained using anti-rat TH primary antibody followed by a fluorescent (FITC-conjugated) secondary antibody. Subsequently, cells were stained with a fluorescent Hoechst 33258 DNA dye. Only those cells containing nuclear chromatin condensations (pyknotic nuclei) were scored as apoptotic. Cells containing intact nuclei -were counted as healthy. In the entire experiment, a total of 5066 TH-immunoreactive neurons were examined for nuclear chromatin condensation. Four sample groups were tested:
In this Example, experiments to study tyrosine hydroxylase-positive apoptotic cells were conducted. E15 rat ventral mesencephalic cultures were grown in F12 medium containing 5% human placental serum for 24 hrs. […] Next, cultures were washed with PBS and fixed for 2 min in 1% paraformaldehyde followed by further fixation in 70% ethanol in glycine buffer at -20° C. for 10 min. […] Cells containing intact nuclei were counted as healthy. […] In the entire experiment, total of 5066 TH-immunoreactive neurons were examined for the nuclear chromatin condensation under a fluorescence microscope.

[3] = tested on: transplanted embryonic rat ventral mesencephalic dopamine neurons; details: tissue preincubated 2 h with 10 μM; six weeks after transplantation
Description: Following the incubation, the tissue was immediately transplanted into the denervated rat striatum. Six weeks after transplantation, TH+ cells within the striatum were visualized following sacrifice of the animals, and cryotome sectioning and immunostaining for tyrosine hydroxylase (TH) using a polyclonal anti-rat TH primary antibody.
For the transplantation, one-half embryonic day 15 (E15) rat ventral mesencephalon was extruded into a strand using a 0.2 mm in diameter glass cannula made by heating a glass luer adaptor (Kimble-Kontes, Cat# 663500-0444). […] Following incubation, the tissue was immediately transplanted into the denervated rat striatum. The tissue strand was drawn up into a 24 g sterile stainless steel cannula attached to a microliter syringe and stereotaxically transplanted at the following coordinates (AP 0.0 mm form bregma, LAT3.0 mm form the midline, VD-3.5 to -7.5 mm below the dura) in 4.0 μl over 4 min.
Visualization of TH+ cells: Six weeks after transplantation, all animals were sacrificed, and their brains perfused with heparinized-saline followed by 4% paraformaldehyde. […] All TH-immunoreactive neurons were counted in every third section under a microscope. Abercrombie's correction was used to estimate the total number of TH+ neurons surviving in each transplant.

Structure (SMILES) | surviving TH+ neurons/cm^2 ([1]; 1 μM inhibitor, serum control […]±30, no serum 283±32) [TH+ neurons/cm^2] | concentration at which the survival effect on TH+ neurons reached its maximum ([1]; 0.1-10 μM tested) [µM] | anti-apoptotic effect in dopamine neurons after serum withdrawal [2] | number of surviving dopamine neurons (TH+ cells) compared to sham-pretreated transplants [3]
Oc1ccc(-c2nc(-c3ccc(F)cc3)c(-c3ccncc3)[nH]2)cc1 [SB 202190] | 537±37 | 1 |  | 
C[S+]([O-])c1ccc(-c2nc(-c3ccc(F)cc3)c(-c3ccncc3)[nH]2)cc1 (stereo not shown) [SB 203580] |  |  | significant (p<0.001), although less dramatic than that of PD169316; also recorded: significant (p<0.001) although less dramatic than that of PD169316 | intermediate level
